Like-named read-outs stand apart in the source and are kept apart here.
What was measured:
Assay type in all cases: in vivo
[1] = tested on: Avena fatua (AVEFA); experiment: Post-emergence action against weeds, greenhouse pot test, visual rating: Avena fatua; settings: 10 DAT
[2] = tested on: Brachiaria platyfylla (BRAPP); experiment: Post-emergence action against weeds, greenhouse pot test, visual rating: Brachiaria platyfylla
Experimental: (§1) When the observed efficacies already exceed the formal sum total of the values of the tests with individual applications, they also exceed the expected value according to Colby, which is calculated using the formula below and is likewise regarded as an indication of synergism (cf. S. R. Colby; in Weeds 15 (1967) pp. 20 to 22):
(§2) where: • A=efficacy of the active ingredient (A) in % at an application rate of a [g a.i./ha]; • B=efficacy of the active ingredient (B) in % at an application rate of b [g a.i./ha]; • E^C=expected value of the effect of the combination (A)+(B) in % at the combined application rate a+b [g a.i./ha].
(§3) The observed values (E^A) from the experiments, given suitable low dosages, show an effect of the combinations exceeding the expected values according to Colby (E^C) (Δ).
(§4) Seeds of mono- and dicotyledonous weeds were placed in sandy loam in pots, covered with soil and grown in a greenhouse under good growth conditions (temperature, air humidity, water supply). Two to three weeks after sowing, the test plants were treated at the two- to four-leaf stage with the compositions of the invention. The compositions of the invention, formulated as spray powders or as emulsion concentrates, were sprayed onto the green parts of the plant in various dosages with an application rate equivalent to […] of water. After the test plants had been kept in the greenhouse under optimum growth conditions for 3 weeks, the activity of the preparations was rated visually in comparison to untreated controls.
(§5) 100% efficacy means complete control of the particular weed tested.
(§6) 0% efficacy means zero control of the particular weed tested.
(§7) Expected values according to Colby are reported under E.
(§8) The exceedance of the expected value E is given as Δ (=synergistic effect).
(§9) The rating period is reported in days after application (DAT).

[3] = tested on: Centaurea cyanus (CENCY); experiment: Post-emergence action against weeds, greenhouse pot test, visual rating: Centaurea cyanus; settings: 40 g a.i./ha
Experimental: as §1, §2, §3, §4, §5, §6, §7, §8, §9

[4] = tested on: Eleusine indica (ELEIN); experiment: Post-emergence action against weeds, greenhouse pot test, visual rating: Eleusine indica; settings: for pest or weed control at 150 g/ha: 150 g a.i./ha; for pest or weed control at 50 g/ha: 50 g a.i./ha
Experimental: as §1, §2, §3, §4, §5, §6, §7, §8, §9

[5] = tested on: Lolium rigidum (LOLRI); experiment: Post-emergence action against weeds, greenhouse pot test, visual rating: Lolium rigidum
[6] = tested on: Pharbitis purpurea (PHBPU); experiment: Post-emergence action against weeds, greenhouse pot test, visual rating: Pharbitis purpurea
Experimental: as §1, §2, §3, §4, §5, §6, §7, §8, §9

[7] = tested on: Kochia scoparia (KCHSC); experiment: Post-emergence action against weeds, greenhouse pot test, visual rating: Kochia scoparia
[8] = tested on: Sorghum halepense (SORHA); experiment: Post-emergence action against weeds, greenhouse pot test, visual rating: Sorghum halepense
Experimental: as §1, §2, §3, §4, §5, §6, §7, §8, §9

[9] = tested on: Bidens pilosa (BIDPI); experiment: Post-emergence action against weeds, greenhouse pot test, visual rating: Bidens pilosa; settings: 5 g a.i./ha
[10] = tested on: Echinochloa crus-galli (ECHCG); experiment: Post-emergence action against weeds, greenhouse pot test, visual rating: Echinochloa crus-galli
[11] = Eleusine indica, post-emergence, 240 h, read-out: Herbicidal effect [%] on ELEIN 10 DAT
[12] = Eleusine indica, post-emergence, 504 h, read-out: Herbicidal effect [%] on ELEIN 21 DAT
[13] = post-emergence, 240 h, read-out: Herbicidal effect [%] on BRAPP 10 DAT
[14] = Bassia scoparia, post-emergence, 504 h, read-out: Herbicidal effect [%] on KCHSC 21 DAT

With `O=C(O)COc1ccc(Cl)cc1Cl` [2,4-D] the “Herbicidal effect [%] on AVEFA 10 DAT” value ([1]; 40 g a.i./ha) was 0%, the “Herbicidal effect [%] on BRAPP 10 DAT” value ([2]; 40 g a.i./ha) was 0% and the “Herbicidal effect [%] on BRAPP 21 DAT” value ([2]; 40 g a.i./ha) was 0%. The “Herbicidal effect [%] on CENCY 21 DAT” value [3] was 75% and the “Herbicidal effect [%] on ELEIN 10 DAT” value ([4]; 40 g a.i./ha) was 10%.
With `CCOCN(C(=O)CCl)c1c(C)cccc1CC` [Acetochlor, acetochlor] the pest or weed control at 150 g/ha [4, 11] was 80%, the pest or weed control at 150 g/ha [4, 12] was 90% and the “Herbicidal effect [%] on LOLRI 10 DAT” value ([5]; 150 g a.i./ha) was 40%. For the same compound, the pest or weed control at 150 g/ha ([5]; Lolium rigidum, 504 h, 150 g a.i./ha, 21 DAT, read-out: Herbicidal effect [%] on LOLRI 21 DAT) was 0%.
With `CCNc1nc(Cl)nc(NC(C)C)n1` [Atrazine, atrazine] the pest or weed control at 50 g/ha [4, 11] was 30%, the pest or weed control at 50 g/ha [4, 12] was 0% and the “Herbicidal effect [%] on PHBPU 10 DAT” value ([6]; 50 g a.i./ha, 10 DAT) was 30%. For the same compound, the “Herbicidal effect [%] on PHBPU 21 DAT” value ([6]; 50 g a.i./ha) was 20%.
`CCSC(C)CC1CC(=O)C(/C(CC)=N/OC/C=C/Cl)=C(O)C1` (centres unmarked) [Clethodim, clethodim] showed a pest or weed control at 8 g/ha [2, 13] of 85%, a pest or weed control at 8 g/ha [4, 12] of 30% and a pest or weed control at 8 g/ha [7, 14] of 0%. The “Herbicidal effect [%] on LOLRI 10 DAT” value ([5]; 8 g a.i./ha) was 80% and the “Herbicidal effect [%] on SORHA 10 DAT” value ([8]; 8 g a.i./ha, 10 DAT) was 80%.
For `COc1c(Cl)ccc(Cl)c1C(=O)O` [Dicamba, dicamba], the “Herbicidal effect [%] on BIDPI 10 DAT” value [9] was 30%, the “Herbicidal effect [%] on BIDPI 21 DAT” value [9] was 40% and the pest or weed control at 5 g/ha [2, 13] was 0%. For the same compound, the pest or weed control at 5 g/ha ([2]; post-emergence, 504 h, read-out: Herbicidal effect [%] on BRAPP 21 DAT) was 0%, the “Herbicidal effect [%] on ECHCG 10 DAT” value ([10]; 5 g a.i./ha) was 0% and the pest or weed control at 5 g/ha [4, 11] was 0%. The pest or weed control at 5 g/ha [4, 12] was 0%, the “Herbicidal effect [%] on KCHSC 10 DAT” value ([7]; 5 g a.i./ha) was 20% and the pest or weed control at 5 g/ha [7, 14] was 20%. It also gave a pest or weed control at 5 g/ha ([5]; Lolium rigidum, 504 h, read-out: Herbicidal effect [%] on LOLRI 21 DAT) of 0%.
In the case of `O=C(Nc1ccc(F)cc1F)c1cccnc1Oc1cccc(C(F)(F)F)c1` [Diflufenican, diflufenican], the pest or weed control at 120 g/ha ([1]; Avena fatua, 240 h, 120 g a.i./ha, read-out: Herbicidal effect [%] on AVEFA 10 DAT) is reported as 10%, the pest or weed control at 120 g/ha ([4]; Eleusine indica, post-emergence, 504 h, 120 g a.i./ha, read-out: Herbicidal effect [%] on ELEIN 21 DAT) is reported as 10% and the “Herbicidal effect [%] on SORHA 21 DAT” value ([8]; 120 g a.i./ha, 21 DAT) is reported as 0%.
For `COc1c(Cl)ccc(-c2nc(C(=O)O)c(Cl)c(N)c2F)c1F` [Florpyrauxifen, florpyrauxifen], the “Herbicidal effect [%] on PHBPU 21 DAT” value ([6]; 1 g a.i./ha) was 10%.
`CP(=O)(O)CCC(N)C(=O)O` (centres unmarked) [Glufosinate, glufosinate] showed a pest or weed control at 30 g/ha [4, 11] of 10%.
In the case of `O=C(O)CNCP(=O)(O)O` [Glyphosate, glyphosate], the “Herbicidal effect [%] on ECHCG 10 DAT” value ([10]; 30 g a.i./ha) is reported as 20% and the pest or weed control at 30 g/ha [7, 14] is reported as 0%.
